Counter-ions that a name gives are not always drawn.
The compounds below were run against T1, human TRPC6 (Homo sapiens, UniProt Q9Y210) (assay: TRPC6 calcium flux assay (FLIPR, OAG-stimulated calcium influx)). Conditions: HEK293 cells stably transfected with human TRPC6, read-out: hTRPC6 Potency.
T1 construct: expressed in transfected cells
T1 sequence (Q9Y210 1-931): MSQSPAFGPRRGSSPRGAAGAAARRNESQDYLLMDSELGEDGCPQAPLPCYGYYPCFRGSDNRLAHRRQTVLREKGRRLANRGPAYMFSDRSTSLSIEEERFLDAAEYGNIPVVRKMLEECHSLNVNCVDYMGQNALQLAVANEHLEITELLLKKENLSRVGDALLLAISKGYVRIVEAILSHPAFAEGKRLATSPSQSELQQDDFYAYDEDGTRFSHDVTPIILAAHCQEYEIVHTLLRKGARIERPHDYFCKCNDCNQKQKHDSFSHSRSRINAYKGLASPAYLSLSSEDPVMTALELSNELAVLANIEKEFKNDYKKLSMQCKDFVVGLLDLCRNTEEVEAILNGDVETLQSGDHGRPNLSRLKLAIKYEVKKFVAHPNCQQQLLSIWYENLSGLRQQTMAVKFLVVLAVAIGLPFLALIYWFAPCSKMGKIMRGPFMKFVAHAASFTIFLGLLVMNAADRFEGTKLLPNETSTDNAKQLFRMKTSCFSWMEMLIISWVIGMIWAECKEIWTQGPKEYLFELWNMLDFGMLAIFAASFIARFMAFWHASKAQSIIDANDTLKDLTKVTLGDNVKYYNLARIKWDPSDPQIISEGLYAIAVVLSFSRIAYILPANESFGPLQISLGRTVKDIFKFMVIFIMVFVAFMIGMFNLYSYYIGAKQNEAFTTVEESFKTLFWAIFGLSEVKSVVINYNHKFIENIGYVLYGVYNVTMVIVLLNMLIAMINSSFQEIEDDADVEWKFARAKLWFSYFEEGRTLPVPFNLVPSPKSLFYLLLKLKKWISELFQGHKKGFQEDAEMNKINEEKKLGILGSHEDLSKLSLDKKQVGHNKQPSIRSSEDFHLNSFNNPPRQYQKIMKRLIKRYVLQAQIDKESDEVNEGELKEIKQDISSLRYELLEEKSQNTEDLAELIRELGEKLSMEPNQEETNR
Type: cell-based
Summary of the method: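 IC50 derived by plotting background-corrected peak fluorescence (180 s window, normalized to OAG-triggered signal vs buffer) against dose. Stable human TRPC6 HEK293 line was dye-loaded, exposed to compound 25 min, then challenged with 50 uM final OAG in 2 mM Ca2+ HEPES buffer pH 7.2, 0.5% DMSO.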

Row | SMILES | IC50 [nM]
1 | N#Cc1ccc(Cn2c(N3CC[C@@H](F)[C@H](N)C3)nc3c(Cl)cc(Cl)cc32)nc1 [Example 58, 6-((2-((3R,4R)-3-amino-4-fluoropiperidin-1-yl)-4,6-dichloro-1H-benzo[d]imidazol-1-yl)methyl)nicotinonitrile] | 0.469
2 | N#Cc1ccc(Cn2c(N3CC[C@H](F)[C@H](N)C3)nc3c(Cl)cc(Cl)cc32)nc1 [Example 59, 6-((2-((3R,4S)-3-amino-4-fluoropiperidin-1-yl)-4,6-dichloro-1H-benzo[d]imidazol-1-yl)methyl)nicotinonitrile] | 0.256
3 | N#Cc1ccc(Cn2c(N3CCC(F)(F)[C@H](N)C3)nc3c(Cl)cc(Cl)cc32)nc1 [Example 60, (R)-6-((2-(3-amino-4,4-difluoropiperidin-1-yl)-4,6-dichloro-1H-benzo[d]imidazol-1-yl)methyl)nicotinonitrile] | 0.261
4 | N#Cc1ccc(Cn2c(N3CCC[C@H](N)C3)nc3c(F)cc(F)cc32)nc1 [Example 61, (S)-6-((2-(3-aminopiperidin-1-yl)-4,6-difluoro-1H-benzo[d]imidazol-1-yl)methyl)nicotinonitrile] | 2.7
5 | N#Cc1ccc(Cn2c(N3CCC[C@H](N)C3)nc3cc(F)cc(F)c32)nc1 [Example 62, (S)-6-((2-(3-aminopiperidin-yl)-5,7-difluoro-1H-benzo[d]imidazol-1-yl)methyl)nicotinonitrile] | 60.3
6 | N#Cc1ccc(Cn2c(N3CC[C@@H](F)[C@H](N)C3)nc3c(F)cc(F)cc32)nc1 [Example 63, 6-((2-((3R,4R)-3-amino-4-fluoropiperidin-1-yl)-4,6-difluoro-1H-benzo[d]imidazol-1-yl)methyl)nicotinonitrile] | 0.389
7 | N#Cc1ccc(Cn2c(N3CC[C@@H](F)[C@H](N)C3)nc3cc(F)cc(F)c32)nc1 [Example 64, 6-((2-((3R,4R)-3-amino-4-fluoropiperidin-1-yl)-5,7-difluoro-1H-benzo[d]imidazol-1-yl)methyl)nicotinonitrile] | 132
8 | N#Cc1ccc(Cn2c(N3CC[C@H](F)[C@H](N)C3)nc3c(F)cc(F)cc32)nc1 [Example 65, 6-((2-((3R,4S)-3-amino-4-fluoropiperidin-1-yl)-4,6-difluoro-1H-benzo[d]imidazol-1-yl)methyl)nicotinonitrile] | 0.598
9 | N#Cc1ccc(Cn2c(N3CC[C@H](F)[C@H](N)C3)nc3cc(F)cc(F)c32)nc1 [Example 66, 6-((2-((3R,4S)-3-amino-4-fluoropiperidin-1-yl)-5,7-difluoro-1H-benzo[d]imidazol-1-yl)methyl)nicotinonitrile] | 237
10 | N#Cc1ccc(Cn2c(N3CCC(F)(F)[C@H](N)C3)nc3cc(F)cc(F)c32)nc1 [Example 67, (R)-6-((2-(3-amino-4,4-difluoropiperidin-1-yl)-5,7-difluoro-1H-benzo[d]imidazol-1-yl)methyl)nicotinonitrile] | 272
11 | N#Cc1ccc(Cn2c(N3CC[C@H](F)[C@H](N)C3)nc3ccc(C#N)cc32)nc1 [Example 68, 2-((3R,4S)-3-amino-4-fluoropiperidin-1-yl)-1-((5-cyanopyridin-2-yl)methyl)-1H-benzo[d]imidazole-6-carbonitrile] | 1.82
12 | N#Cc1ccc(Cn2c(N3CC[C@H](F)[C@H](N)C3)nc3cc(C#N)ccc32)nc1 [Example 69, 2-((3R,4S)-3-amino-4-fluoropiperidin-1-yl)-1-((5-cyanopyridin-2-yl)methyl)-1H-benzo[d]imidazole-5-carbonitrile] | 14.7
13 | N#Cc1ccc(Cn2c(N3CCC[C@H](N)C3)nc3ccccc32)nc1 [Example 70, (S)-6-((2-(3-aminopiperidin-1-yl)-1H-benzo[d]imidazol-1-yl)methyl)nicotinonitrile] | 2.32
14 | N#Cc1ccc(Cn2c(N3CCC(F)(F)[C@H](N)C3)nc3cc(F)ccc32)nc1 [Example 71, (R)-6-((2-(3-amino-4,4-difluoropiperidin-1-yl)-5-fluoro-1H-benzo[d]imidazol-1-yl)methyl)nicotinonitrile hydrochloride] | 5.62
15 | N#Cc1ccc(Cn2c(N3CC[C@@H](F)[C@H](N)C3)nc3cc(F)c(F)cc32)nc1 [Example 72, 6-((2-((3R,4R)-3-amino-4-fluoropiperidin-1-yl)-5,6-difluoro-1H-benzo[d]imidazol-1-yl)methyl)nicotinonitrile] | 0.448

Continued, values first:

Row | IC50 [nM] | SMILES
16 | 1.09 | N#Cc1ccc(Cn2c(N3CC[C@H](F)[C@H](N)C3)nc3ccccc32)nc1 [Example 73, 6-((2-((3R,4S)-3-amino-4-fluoropiperidin-1-yl)-1H-benzo[d]imidazol-1-yl)methyl)nicotinonitrile]
17 | 380 | N#Cc1ccc(Cn2c(N3C[C@H]4C[C@@]4(CN)C3)nc3ccccc32)nc1 [Example 74, 6-((2-((1R,5S)-1-(aminomethyl)-3-azabicyclo[3.1.0]hexan-3-yl)-1H-benzo[d]imidazol-1-yl)methyl)nicotinonitrile hydrochloride]
18 | 81.4 | N#Cc1ccc(Cn2c(N3C[C@@H]4C[C@]4(CN)C3)nc3ccccc32)nc1 [Example 75, 6-((2-((1S,5R)-1-(aminomethyl)-3-azabicyclo[3.1.0]hexan-3-yl)-1H-benzo[d]imidazol-1-yl)methyl)nicotinonitrile hydrochloride]
19 | 971 | N#Cc1ccc(Cn2c(N3C[C@H]4CC[C@@H](N)[C@H]4C3)nc3ccccc32)nc1 [Example 76, 6-((2-((3aR,4R,6aS)-4-aminohexahydrocyclopenta[c]pyrrol-2(1H)-yl)-1H-benzo[d]imidazol-1-yl)methyl)nicotinonitrile hydrochloride]
20 | 10.9 | N#Cc1ccc(Cn2c(N3C[C@@H]4CC[C@H](N)[C@@H]4C3)nc3ccccc32)nc1 [Example 77, 6-((2-((3aS,4S,6aR)-4-aminohexahydrocyclopenta[c]pyrrol-2(1H)-yl)-1H-benzo[d]imidazol-1-yl)methyl)nicotinonitrile hydrochloride]
21 | 70.7 | N#Cc1ccc(Cn2c(N3C[C@H]4CC[C@H](N)[C@H]4C3)nc3ccccc32)nc1 [Example 78, 6-((2-((3aR,4S,6aS)-4-aminohexahydrocyclopenta[c]pyrrol-2(1H)-yl)-1H-benzo[d]imidazol-1-yl)methyl)nicotinonitrile hydrochloride]
22 | 5.09 | N#Cc1ccc(Cn2c(N3C[C@@H]4CC[C@@H](N)[C@@H]4C3)nc3ccccc32)nc1 [Example 79, 6-((2-((3aS,4R,6aR)-4-aminohexahydrocyclopenta[c]pyrrol-2(1H)-yl)-1H-benzo[d]imidazol-1-yl)methyl)nicotinonitrile hydrochloride]
23 | 79.3 | N#Cc1ccc(Cn2c(N3CC[C@H](CN)C3)nc3ccccc32)nc1 [Example 80, (R)-6-((2-(3-(aminomethyl)pyrrolidin-1-yl)-1H-benzo[d]imidazol-1-yl)methyl)nicotinonitrile hydrochloride]
24 | 557 | N#Cc1ccc(Cn2c(N3CC[C@@H](CN)C3)nc3ccccc32)nc1 [Example 81, (S)-6-((2-(3-(aminomethyl)pyrrolidin-1-yl)-1H-benzo[d]imidazol-1-yl)methyl)nicotinonitrile hydrochloride]
25 | 0.504 | N#Cc1ccc(Cn2c(N3CC[C@H](F)[C@H](N)C3)nc3cc(Cl)c(Cl)cc32)nc1 [Example 82, 6-((2-((3R,4S)-3-amino-4-fluoropiperidin-1-yl)-5,6-dichloro-1H-benzo[d]imidazol-1-yl)methyl)nicotinonitrile hydrochloride]
